Data: patent US6927401B1, “Method of characterizing fluorescent molecules or other particles using generating functions” (Evotec OAI AG, priority 1999, dated 2005)

Key:
[1] = test system: monoclonal antibody exposed on the surface of hybridoma cell line HB-8152
Description: The cell number of a confluent hybridoma culture was determined to be 1.6×10^6 per ml and aliquotes with approx. 0.5×10^6 hybridoma cells in 100 μl were used for each single experiment. The cells were washed in 100 μl phosphate buffered saline (PBS) buffer for 5 minutes to remove soluble antibody from the assay. Subsequently, the cells were incubated for 30 minutes in 100 μl PBS containing the theophylline-TAMRA conjugate at different concentrations: 0, 0.4, 2, 8, 16, 40, 200, 800 nM. […] The degree of fluorescence labelling of the hybridoma cells was determined for each single experiment in four independent measurements.

[2] = target: T1, EGF receptor (Homo sapiens, UniProt P00533); experiment: FIDA competition assay, HCT membranes with TMR-EGF and competitor; details: binding normalized to absence of competitor, read-out: affinity (competition with TMR-EGF)
T1 construct: endogenous in cells; host or cells: HCT (human colon carcinoma tumor) cells, crude membranes
Description: Binding was determined by the method according to the present invention and was normalized to that in the absence of competitor.

| Molecule | IC50 [1] [nM] | Ki [2] [nM] |
| --- | --- | --- |
| Cn1c(=O)c2[nH]cnc2n(C)c1=O [theophylline, 1,3-dimethylxanthine] | 250 |  |
| betacellulin: polypeptide growth factor with sequence identity with EGF, from R & D Systems |  | 0.23 ± 0.02 |
